The values below are quoted from earlier work in US20040087484A1, “Combination of organic compounds” (priority 2003, published 2004).

The subject of this series is male rats. The note with it: used for the treatment of hypertensive disorder in male rats.

Each structure is given as a SMILES string.

In the case of `CCCCc1nc(Cl)c(CO)n1Cc1ccc(-c2ccccc2-c2nn[nH]n2)cc1` [losartan], the “preservation of sexual function” value was “advantage in preservation of sexual function”.
